“Also recorded” adds a separate entry of the source.
Key:
[1] = system: HCT116 spheroidically aggregated cells; experiment: Dissemination of cells from spheroidically aggregated cells in three-dimensional collagen gel (time-lapse microscope); format: cell-based, human
Protocol: Particularly, 2.5 mg/Ml of collagen containing cells was loaded in the magnetic 4-well chamber (Live Cell Instrument, Korea) for the culture system of time-lapse microscope, and the collagen was hardened in a 37° C. incubator for 30 minutes. When the collagen was fully solidified, PRMI-1640 supplemented with 10% FBS was added thereto. The magnetic chamber containing three-dimensional collagen gel and its corresponding adaptor were placed on the time-lapse microscope, followed by setting the multi-position. […] 5% CO2 incubator. Culture medium was added thereto every 6 hours in order for the collagen not to be dried. At this time, it is important to maintain the focus not to be changed. […]
As confirmed in the result of Example 14, when the HCT116 parental cells were treated with TGFβ1, the dissemination of cells from the spheroidically aggregated cells and migration thereof were observed. When the KRS knock-out cell line was treated with TGFβ1, the dissemination of cells was not observed. […] When the extracellular signal-regulated kinase (ERKs) inhibitor U0126 was treated to the HCT116 parental cells, it was presumed to be negative effect on the dissemination and migration of cells. To verify above, 50 μM of U0126, the ERKs inhibitor, was treated to the cell line, followed by observation of cell dissemination and migration by real-time live imaging of the spheroidically aggregated cells.

HCT116 cells = experiment: EMT marker protein expression in two-dimensional culture treated with cytokines (Western blotting); format: cell-based, human; details: 10% FBS
Protocol: Particularly, the cell line cultured in a two-dimensional environment with 10% serum was washed with PBS twice, followed by reaction at 4° C. for 15 minutes in 200 μl of lysis buffer [50 mM Tris-HCl, pH 7.4, 1% NP-40, 0.25% sodium deoxycholate, 150 mM NaCl, 1 mM EDTA] supplemented with SDS, Na3O4V, and protease inhibitor cocktails (GenDepot, USA). The cells were collected and centrifuged at 4° C. at 13000×g for 30 minutes. The supernatant was transferred in a new microcentrifuge tube, followed by protein quantification using BCA reagent (Thermo Scientifics, USA). To the quantified sample was added 4× sample buffer [100% glycerol 4 ml, Tris-HCl, pH 6.8, 2.4 ml, SDS 0.8 g, bromophenol blue 4 mg, β-mercaptoethanol 0.4 ml, H2O 3.1 ml (total 10 Ml)], which was boiled at 100° C. for 5 minutes. The prepared sample was treated with the primary antibodies of ZO-1 (Zymed, USA), β-catenin (Santa Cruz, USA), and E-cadherin by the same manner as described in Example <1-2>.
To observe the surrounding microenvironmental factors in a two-dimensional culture environment over the time, the culture fluid supplemented with 10% FBS was additionally treated with such cytokines as TNFα and TGFβ, followed by investigation of the expression of the epithelial marker protein that can be an index for cell-cell adhesion by the same manner as described in Example <3-1>.

[2] = system: lysyl-tRNA synthetase (KRS); experiment: KRS expression after shRNA transfection (Western blotting); format: cell-based, homo sapiens; details: HCT116 cells transfected with KRS shRNA plasmid DNA
Description: Particularly, the cell line wherein KRS expression was suppressed was constructed by transfecting cells with lysyl-tRNA synthetase MISSION® shRNA plasmid DNA (Sigma, USA). At this time, the said KRS was homo sapiens lysyl-tRNA synthetase (transcript variant 1, mRNA sequence: NM_001130089.1). This KRS includes […] long exon 1˜15. Among the purchased KRS shRNA plasmid DNAs, shKRS-0 (SEQ. ID. NO: 1) targets 1581˜1604 bp (exon 12) of KRS, shRKS-1 (SEQ. ID. NO: 2) targets 437˜459 bp (exon 3˜4), shKRS-2 (SEQ. ID. NO: 3) targets 911˜933 bp (exon 7), and shKRS-5 (SEQ. ID. NO: 4) targets 1071˜1092 bp (exon 8). TRC1.5-pLK0.1-puro was used as the expression vector. Selection was performed by using puromycin to establish stable cell lines.
Western blotting was performed to investigate whether or not the KRS expression was inhibited in the spheroidically aggregated cells of the KRS knock-out cell lines constructed by the method of Example <2-1>.

[3] = TGFβ1, normal HCT116 and KRS over-expressing cell line

TGFβ1: the most representative multifunctional and EMT inducing cytokine
formation of invasive protrusion ([1]; TGFβ1, 36 hours, HCT116 parental cells and KRS over-expressing cell lines): not observed
dissemination of cells from spheroid cells ([1]; TGFβ1, HCT116 parental cells and KRS over-expressing cell lines): observed
cell migration ([1]; TGFβ1, KRS knock-out cell line): significantly decreased
dissemination of cells ([1]; TGFβ1, KRS knock-out cell line): not and not observed
epithelial marker protein like occludin (ZO-1 and occludin) expression (HCT116 cells; KRS knock-out cell line): increase; also recorded: up-regulated
fibronectin expression (HCT116 cells; KRS knock-out cell line): reduced; also recorded: down-regulated; also recorded: decrease
fibronectin expression (HCT116 cells; [3]): up-regulated
occludin or ZO-1 expression (HCT116 cells; [3]): down-regulated

TNFα
formation of invasive protrusion ([1]; TNFα, 36 hours, HCT116 parental cells, KRS over-expressing cell line and KRS knock-out cell line): increased
dissemination of cells from the cell mass and cell migration ([1]; TNFα, 36 hours, parental, KRS over-expressing and KRS knock-out cell lines (regardless of KRS expression)): observed
epithelial marker protein like occludin (ZO-1 and occludin) expression (HCT116 cells; KRS knock-out cell line): increased
fibronectin expression (HCT116 cells; KRS knock-out cell line): reduced
expression of the epithelial marker protein (HCT116 cells; TNFα, normal HCT116 and KRS over-expressing cell line): not changed

shKRS-0: KRS MISSION shRNA plasmid DNA (Sigma), SEQ. ID. NO: 1, targets 1581˜1604 bp (exon 12) of KRS (DNA CCGGCCTGGAAGTGACTTGCATCAACTCGAGTTGATGCAAGTCACTTCCAGGTTTTTG)
KRS expression [2]: KRS inhibiting effect

shKRS-2: KRS MISSION shRNA plasmid DNA (Sigma), SEQ. ID. NO: 3, targets 911˜933 bp (exon 7) of KRS (DNA CCGGCCAGAGATACTTGGACTTGATCTCGAGATCAAGTCCAAGTATCTCTGGTTTTTG)
KRS expression [2]: KRS inhibiting effect

shKRS-5: KRS MISSION shRNA plasmid DNA (Sigma), SEQ. ID. NO: 4, targets 1071˜1092 bp (exon 8) of KRS (DNA CCGGGCCTTTCATCACTTATCACAACTCGAGTTGTGATAAGTGATGAAAGGCTTTTTG)
KRS expression [2]: KRS inhibiting effect

From patent publication US20160146815A1, “METHOD FOR SCREEING CANCER METASTASIS INHIBITOR USING CULTURE OF CELLS OR SPHEROIDICALLY AGGREGATED CELLS IN WHICH LYSYL-TRNA SYNTHETASE IS REGULATED TO BE EXPRESSED OR UNEXPRESSED” (Medicinal Bioconvergence Research Center, priority 2013, published 2016)
